# Results: patent publication US9267129B2, “Compositions and methods for conferring herbicide resistance” (BEN-GURION UNIVERSITY OF THE NEGEV RESEARCH AND DEVELOPMENT …, priority 2011, dated 2016)
# Key:
# [1] = tested on: E. coli BUM1 transformed with the wild type PiAHAS genes; test: Growth on M9 plates with SMM, bacteria transformed with wild type PiAHAS genes; assay type: cell-based, Escherichia coli; conditions: 50 μM SMM, 48 hrs, 37° C.
# Procedure: (§1) This strain also requires proline and thiamin, regardless of AHAS expression. Transformation of BUM1 cells was achieved using a standard heat shock protocol. BUM1 cells were grown in LB or in M9 minimal medium (7 mg/ml Na2HPO4; 3 mg/ml KH2PO4; 0.5 mg/ml NaCl; 1 mg/ml NH4Cl; 0.12 mg/ml MgSO4; 0.35 mg/ml thiamin HCl; 2 mg/ml glucose) supplemented with 200 μg/ml proline. Where appropriate, the M9 medium was supplemented with the BCAAs valine, leucine, and isoleucine (150 μg/ml of each) or with 50 μM SMM. BUM1 transformants were propagated and kept on LB medium supplemented with 100 μg/ml Ampicillin. For functional expression assays, the cells were washed and plated on M9 agar plates and incubated for 48 hrs at 37° C. […]
# (§2) The expression vector pEp-empty, an empty plasmid that retains the native ilvEp promoter and ATG start codon, was created by amplification of pAH29 plasmid with the pAH29-empty primer set, and included BamHI and SalI restriction sites for future fusion with the algal genes. Three forms of PiAHAS genes were used for this experiment: PiAHAS full open reading frame (ORF), truncated PiAHAS without the estimated chloroplast targeting peptide (from Serine91), and PimAHAS containing the point mutation (W605S). […] The plates were incubated for 48 hrs (FIG. 3) and bacterial growth was determined. […]
# [2] = tested on: E. coli BUM1 carrying the mutant gene (pEp-mut); test: Growth on M9 plates with SMM, bacteria carrying the mutant gene; assay type: cell-based, Escherichia coli; conditions: 50 μM SMM, 48 hrs, 37° C.
# Procedure: as §1, §2
compound,measurement,setting,value
"COC(=O)c1ccccc1S(=O)(=O)NC(=O)Nc1nc(C)cc(C)n1 [SMM, sulfometuron methyl]",bacterial growth in presence of SMM,[1],totally inhibited
same,bacterial growth in presence of SMM,[2],not affected
